“And” between values parts separate entries of the source, which are not always exact repeats. Equal values may be shown once. ± gives the uncertainty stated by the source.
Test: xn = mol fraction of the nth substance listed

CN[C@@H]1[C@H](O[C@H]2[C@H](O[C@H]3[C@H](O)[C@@H](O)[C@H](NC(=N)N)[C@@H](O)[C@@H]3NC(=N)N)O[C@@H](C)[C@]2(O)C=O)O[C@@H](CO)[C@H](O)[C@H]1O.CN[C@@H]1[C@H](O[C@H]2[C@H](O[C@H]3[C@H](O)[C@@H](O)[C@H](NC(=N)N)[C@@H](O)[C@@H]3NC(=N)N)O[C@@H](C)[C@]2(O)C=O)O[C@@H](CO)[C@H](O)[C@H]1O.O=S(=O)(O)O.O=S(=O)(O)O.O=S(=O)(O)O + O
Conditions	viscosity
303.15 K, 101.33 kPa, x1 = 1e-06	0.804 ± 0.041 mPa·s and 0.8048 ± 0.041 mPa·s and 0.8056 ± 0.041 mPa·s
303.15 K, 101.33 kPa, x1 = 1.8e-06	0.8089 ± 0.041 mPa·s
303.15 K, 101.33 kPa, x1 = 2e-06	0.8064 ± 0.041 mPa·s and 0.8097 ± 0.041 mPa·s
303.15 K, 101.33 kPa, x1 = 2.2e-06	0.8105 ± 0.041 mPa·s
305.15 K, 101 kPa, x1 = 0.0002	0.826 ± 0.0053 mPa·s
305.15 K, 101 kPa, x1 = 0.0004	0.8609 ± 0.0055 mPa·s
308.15 K, 101 kPa, x1 = 7.6e-05	0.7487 ± 0.016 mPa·s
308.15 K, 101 kPa, x1 = 0.0001	0.7667 ± 0.0053 mPa·s
308.15 K, 101 kPa, x1 = 0.00015	0.771 ± 0.016 mPa·s
308.15 K, 101 kPa, x1 = 0.000216	0.7923 ± 0.017 mPa·s
308.15 K, 101 kPa, x1 = 0.000286	0.8134 ± 0.017 mPa·s
308.15 K, 101 kPa, x1 = 0.0003	0.8077 ± 0.0056 mPa·s
308.15 K, 101 kPa, x1 = 0.000358	0.834 ± 0.018 mPa·s
308.15 K, 101.3 kPa, x1 = 0.00018	0.764 ± 0.06 mPa·s
308.15 K, 101.3 kPa, x1 = 0.0003604	0.806 ± 0.06 mPa·s
308.15 K, 101.3 kPa, x1 = 0.00054	0.848 ± 0.06 mPa·s
308.15 K, 101.3 kPa, x1 = 0.0007203	0.893 ± 0.06 mPa·s
308.15 K, 101.3 kPa, x1 = 0.0009005	0.943 ± 0.06 mPa·s
308.15 K, 101.3 kPa, x1 = 0.00108	0.984 ± 0.06 mPa·s
308.15 K, 101.3 kPa, x1 = 0.00126	1.026 ± 0.06 mPa·s
308.15 K, 101.3 kPa, x1 = 0.001439	1.072 ± 0.061 mPa·s
310.15 K, 101 kPa, x1 = 0.0002	0.7448 ± 0.0049 mPa·s
310.15 K, 101 kPa, x1 = 0.0004	0.7702 ± 0.005 mPa·s
313.15 K, 101 kPa, x1 = 7.6e-05	0.6801 ± 0.014 mPa·s
313.15 K, 101 kPa, x1 = 0.0001	0.6932 ± 0.0049 mPa·s
313.15 K, 101 kPa, x1 = 0.00015	0.7016 ± 0.015 mPa·s
313.15 K, 101 kPa, x1 = 0.000216	0.722 ± 0.015 mPa·s
313.15 K, 101 kPa, x1 = 0.000286	0.7425 ± 0.016 mPa·s
313.15 K, 101 kPa, x1 = 0.0003	0.7345 ± 0.0052 mPa·s
313.15 K, 101 kPa, x1 = 0.000358	0.7623 ± 0.016 mPa·s
313.15 K, 101.3 kPa, x1 = 0.00018	0.698 ± 0.06 mPa·s
313.15 K, 101.3 kPa, x1 = 0.0003604	0.739 ± 0.06 mPa·s
313.15 K, 101.3 kPa, x1 = 0.00054	0.784 ± 0.06 mPa·s
313.15 K, 101.3 kPa, x1 = 0.0007203	0.822 ± 0.06 mPa·s
313.15 K, 101.3 kPa, x1 = 0.0009005	0.866 ± 0.06 mPa·s
313.15 K, 101.3 kPa, x1 = 0.00108	0.904 ± 0.06 mPa·s
313.15 K, 101.3 kPa, x1 = 0.00126	0.946 ± 0.06 mPa·s
313.15 K, 101.3 kPa, x1 = 0.001439	0.989 ± 0.06 mPa·s
315.15 K, 101 kPa, x1 = 0.0002	0.6863 ± 0.0046 mPa·s
315.15 K, 101 kPa, x1 = 0.0004	0.7114 ± 0.0047 mPa·s
318.15 K, 101 kPa, x1 = 7.6e-05	0.6228 ± 0.013 mPa·s
318.15 K, 101 kPa, x1 = 0.0001	0.6275 ± 0.0046 mPa·s
318.15 K, 101 kPa, x1 = 0.00015	0.6432 ± 0.014 mPa·s
318.15 K, 101 kPa, x1 = 0.000216	0.6631 ± 0.014 mPa·s
318.15 K, 101 kPa, x1 = 0.000286	0.683 ± 0.014 mPa·s
318.15 K, 101 kPa, x1 = 0.0003	0.6686 ± 0.0048 mPa·s
318.15 K, 101 kPa, x1 = 0.000358	0.7027 ± 0.015 mPa·s

Reference: the CheMixHub viscosity set
